“Also recorded” adds a separate entry of the source.
Assays:
human 5-HT4R = target: T1, human 5-HT4R (Homo sapiens, UniProt Q13639); experiment: 5-HT4R radioligand displacement assay ([3H]-GR113808); format: binding
T1 construct: purchased Eurofins HTS110M
Experimental: All the synthesized phenolic derivatives and their carbamates were evaluated as potential inhibitors of human AChE, using the Ellman assay, as well as potential ligands for human 5-HT4R using a radioligand displacement assay. […].
For competition studies, 2.5 µg of proteins (5-HT4(b) membrane preparations, HTS110M, Eurofins. Eurofins’ 5-HT4(b) membrane preparations are crude membrane preparations made from their proprietary stable recombinant cell lines to ensure high-level of GPCR surface expression.) were incubated in duplicate at 25 °C for 60 min in the absence or the presence of 10^−6 or 10^−8M of each drug (9 was used as a reference standard) and 0.2 nM [^3H]-GR113808 (NET 1152, Perkin Elmer) in 25 mM Tris buffer (pH 7.4, 25 °C). At the end of the incubation, homogenates were filtered through Whatman GF/C filters (Alpha Biotech) pre-soaked with 0.5% polyethylenimine using a Brandel cell harvester. Filters were subsequently washed three times with 1 mL of ice-cold 25 mM Tris buffer (pH 7.4, 4 °C). Non-specific binding was evaluated in parallel in the presence of 30 µM serotonin. For some of these compounds, affinity constants were calculated from five-point inhibition curves using the GraphPad Prism 6 software and expressed as Ki ± SD.

AChE = AChE (Homo sapiens, UniProt P22303); experiment: Kinetic study for AChE inhibition (Lineweaver-Burk plots); format: biochemical
Experimental: To try to clarify the mechanism of action of 19 and 20, reciprocal plots of 1/velocity vs. 1/[substrate] were constructed at different concentrations of the substrate acetylthiocholine iodide (0.01–1 mM) by using the spectrometric method by Ellman et al.. Four concentrations of 19 were selected for the studies: 10^−6, 10^−7, 10^−8 and 10^−9 M for the kinetic analysis of AChE inhibition. Four concentrations of 20 were selected for the studies: 10^−5, 10^−6, 10^−7 and 10^−8 M for the kinetic analysis of AChE inhibition. The plots were assessed by a weighted least squares analysis that assumed the variance of velocity (ν) to be a constant percentage of ν for the entire dataset. Slopes of these reciprocal plots were then plotted against the concentration of 19 and 20 in a weighted analysis.

mice = experiment: Spontaneous locomotor activity (actimeter); format: in vivo, NMRI mice; settings: IP 30 min before test, 1, 3 and 10 mg/kg
Experimental: Locomotor activity. The locomotion of mice was measured using an actimeter (Imetronic®, Pessac, France) through infrared detection. Eight individual removable polycarbonate cages (21 cm length, 7 cm wide and 12 cm high), in which each mouse was placed, were used in the actimeter. Locomotor activity was measured by recording the number of interruptions of beams of the red light over a period of 30 min through a recording system attached to the actimeter. Compound 20 was tested at 1, 3 and 10 mg/kg. Chlorpromazine (3 mg/kg) were used as depressive reference.

T1 sequence (Q13639 whole entry): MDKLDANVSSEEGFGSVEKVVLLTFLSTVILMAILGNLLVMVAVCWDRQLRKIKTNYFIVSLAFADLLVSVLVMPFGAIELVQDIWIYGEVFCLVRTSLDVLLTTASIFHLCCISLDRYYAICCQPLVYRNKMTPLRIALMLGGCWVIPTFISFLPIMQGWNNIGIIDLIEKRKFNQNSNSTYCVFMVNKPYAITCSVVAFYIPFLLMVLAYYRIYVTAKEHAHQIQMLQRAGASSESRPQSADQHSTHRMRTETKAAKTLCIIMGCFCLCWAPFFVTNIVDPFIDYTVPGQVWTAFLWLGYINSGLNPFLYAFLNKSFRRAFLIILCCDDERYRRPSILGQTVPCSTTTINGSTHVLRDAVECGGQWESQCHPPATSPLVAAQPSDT
AChE, sequence (P22303 32-617 isoform P22303-2 limits assumed): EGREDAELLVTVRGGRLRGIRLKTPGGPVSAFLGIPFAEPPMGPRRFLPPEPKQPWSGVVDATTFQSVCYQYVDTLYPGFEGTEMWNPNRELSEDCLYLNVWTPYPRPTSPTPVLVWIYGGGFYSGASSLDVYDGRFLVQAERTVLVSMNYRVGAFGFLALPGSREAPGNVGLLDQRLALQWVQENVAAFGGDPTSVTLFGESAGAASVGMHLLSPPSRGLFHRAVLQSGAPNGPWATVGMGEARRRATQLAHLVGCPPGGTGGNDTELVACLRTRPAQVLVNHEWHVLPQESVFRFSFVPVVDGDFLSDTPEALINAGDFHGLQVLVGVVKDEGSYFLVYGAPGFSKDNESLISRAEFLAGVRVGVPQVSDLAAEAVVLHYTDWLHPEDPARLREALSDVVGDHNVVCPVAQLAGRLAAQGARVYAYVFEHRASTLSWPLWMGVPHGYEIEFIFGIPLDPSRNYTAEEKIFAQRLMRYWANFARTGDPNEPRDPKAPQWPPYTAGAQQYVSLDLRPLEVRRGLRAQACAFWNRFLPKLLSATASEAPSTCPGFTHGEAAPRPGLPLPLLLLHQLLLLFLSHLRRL

Compound: CCN(C)C(=O)Oc1cccc(CN2CCC(CCC(=O)c3cc(Cl)c(N)cc3OC)CC2)c1.O=C(O)/C=C/C(=O)O [Compound 20, [3-[[4-[3-(4-Amino-5-chloro-2-methoxyphenyl)-3-oxopropyl]-1-piperidyl]methyl]phenyl] N-ethyl-N-methyl-carbamate fumaric acid salt]
- (h)5-HT4R % Inhibition at 10^−8 M (human 5-HT4R; 10^−8 M): 16%
- 5-HT4R affinity (human 5-HT4R; result in words): devoid of any activity towards 5-HT4R
- mechanism of AChE inhibition (AChE): mixed-type AChE inhibitor; also recorded: mixed-type inhibition
- spontaneous locomotor activity versus NaCl (mice): none of the tested doses of compound 20 (1, 3 and 10 mg/kg) statically modified spontaneous locomotor activity
